Values quoted from earlier work in patent US8313770B2, “Modifying drug release in suspensions of ionic resin systems” (NEOS Therapeutics, LP, priority 2007, dated 2012).

- Solubility in water and alcohol: soluble
SMILES: COc1ccccc1OCC(O)CO (stereo not shown) [Guaifenesin, 3(2-methoxyphenoxy)-1,2-propanediol]
